From patent US7750014B2, “Imidazo[1,2-C]pyrimidinylacetic acid derivatives” (Actimis Pharmaceuticals, Inc., priority 2004, dated 2010)
Like-named read-outs stand apart in the source and are kept apart here.

Assays:
[1] = molecular target: T1, human CRTH2 (Homo sapiens, UniProt Q9Y5Y4); assay: Human CRTH2 receptor binding assay (Assay 2); conditions: binding to puromycin-resistant CRTH2 L1.2 transfectants
T1 construct: expressed in transfected cells
T1 sequence (Q9Y5Y4 1-395): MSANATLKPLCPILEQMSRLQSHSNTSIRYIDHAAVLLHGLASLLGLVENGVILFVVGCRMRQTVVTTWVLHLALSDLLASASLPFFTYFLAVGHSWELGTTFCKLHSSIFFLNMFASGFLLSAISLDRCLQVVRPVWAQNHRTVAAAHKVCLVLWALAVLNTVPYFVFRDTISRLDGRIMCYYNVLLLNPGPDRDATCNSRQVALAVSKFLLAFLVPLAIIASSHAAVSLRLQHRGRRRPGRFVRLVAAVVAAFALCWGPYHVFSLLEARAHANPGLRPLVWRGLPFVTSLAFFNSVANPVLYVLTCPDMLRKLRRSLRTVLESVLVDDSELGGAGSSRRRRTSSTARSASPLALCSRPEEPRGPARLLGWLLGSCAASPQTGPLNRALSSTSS
Protocol: (§1) Human CRTH2 cDNA was amplified from human eosinophil cDNA with gene specific primers containing restriction sites for cloning into pEAK vector (Edge Bio Systems). The human CRTH2 cDNA was cloned into the mammalian expression vector pEAK. This expression plasmid (40 μg) was transfected into L1.2 cells, at a cell density of 1×10^7 cells/500 μl, by using electroporation apparatus (Gene Pulser II, BioRad) at 250V/1,000 μF. One day after the transfection, puromycin (1 μg/ml, Sigma) was added into the cell culture plates. Two weeks after the transfection, grown cells were picked up for further growth.
CRTH2 transfectants were washed once with PBS and resuspended in binding buffer (50 mM Tris-HCl, pH7.4, 40 mM MgCl2, 0.1% BSA, 0.1% NaN3). 100 μl of cell suspension (2×10^5 cells), [^3H]-labeled PGD2, and various concentrations of test compound were then mixed in a 96-well U-bottom polypropylene plate and incubated for 60 min at room temperature to allow binding to occur. After incubation, the cell suspension was transferred to a filtration plate (#MAFB, Millipore) and washed 3 times with binding buffer. Scintillant was added to the filtration plate, and radioactivity remaining on the filter was measured by TopCount (Packard), a scintillation counter. Non-specific binding was determined by incubating the cell suspension and [^3H]-labeled PGD2 in the presence of 1 μM of unlabeled PGD2.

[2] = molecular target: T1, human CRTH2; assay: Measurement of Ca2+ mobilization in the human CRTH2-transfected L1.2 cell line (Assay 1); format: cell-based; conditions: PGD2-induced Ca2+ mobilization, CRTH2-transfected L1.2 cells, compounds at purity of about 40 to 90%
Protocol: as §1
Ca^2+ loading buffer was prepared by mixing 5 μl of Fluo-3AM (2 mM in DMSO, final 1 μM, Molecular Probes) and 10 μl of pluronic F-127 (Molecular Probes) and diluting the resulting mixture in 10 ml of Ca^2+ assay buffer (20 mM HEPES pH 7.6, 0.1% BSA, 1 mM probenecid, Hanks' solution). The CRTH2 transfected cells which were prepared in Example 1 were washed with PBS, resuspended in Ca^2+ loading buffer at 1×10^7 cells/ml, and incubated for 60 min at room temperature. After incubation, cells were washed and resuspended in Ca^2+ assay buffer, then dispensed into transparent-bottom 96-well plates (#3631, Costar) at 2×10^5 cells/well. Cells were incubated with various concentrations of test compound for 5 minutes at room temperature. The emitted 480 nm fluorescence was measured on FDSS6000, a Ca^2+-measurement apparatus (Hamamatsu Photonics, Hamamatsu, Japan).
Assay results in Assay 1 are shown in Examples and tables of the Examples below. The data corresponds to the compounds as yielded by solid phase synthesis and thus to levels of purity of about 40 to 90%. For practical reasons, the compounds are grouped in four classes of activity as follows: IC50=A(< or =)10 nM<B(< or =)100 nM<C(< or =)500 nM<D

[3] = read-out: In vitro activity grade

Row | Structure (SMILES) | IC50 ([2]; read-out: Activity class) | IC50 [2, 3] | other results
1 | CCCCC[C@H](O)/C=C/[C@H]1C(=O)C[C@H](O)[C@@H]1C/C=C\CCCC(=O)O [[^3H]-labeled PGD2] |  |  | Kd [1]: 6.3 nM
2 | O=C(O)Cc1c(Cl)nc(Cc2ccc(NC(=O)/C=C/c3ccc(Cl)cc3)cc2)n2ccnc12 [Example 1-5, [7-chloro-5-(4-{[(2E)-3-(4-chlorophenyl)prop-2-enoyl]amino}benzyl)imidazo[1,2-c]pyrimidin-8-yl]acetic acid] | 10 to 100 nM |  | 
3 | O=C(O)Cc1cnc(Cc2ccc(NC(=O)c3ccc(C(F)(F)F)cc3)cc2)n2ccnc12 [Example 2-1, [5-(4-{[4-(trifluoromethyl)benzoyl]amino}benzyl)imidazo[1,2-c]pyrimidin-8-yl]acetic acid] |  | 10 to 100 nM | 
4 | O=C(O)Cc1cnc(Cc2ccc(NC(=O)c3ccc(Cl)c(Cl)c3)cc2)n2ccnc12 [Example 2-2, (5-{4-[(3,4-Dichlorobenzoyl)amino]benzyl}imidazo[1,2-c]pyrimidin-8-yl)acetic acid] |  | 100 to 500 nM | 
5 | O=C(O)Cc1c(Cl)nc(Cc2ccc(NC(=O)c3ccc4ccccc4c3)cc2)n2ccnc12 [Example 1-3, {7-chloro-5-[4-(2-naphthoylamino)benzyl]imidazo[1,2-c]pyrimidin-8-yl}acetic acid] | 10 to 100 nM |  | 
6 | O=C(O)Cc1c(Cl)nc(Cc2ccc(NC(=O)/C=C/c3ccccc3)cc2)n2ccnc12 [Example 1-4] | < 10 nM |  | 
7 | O=C(O)Cc1c(Cl)nc(Cc2ccc(NC(=O)c3ccc(Cl)c(Cl)c3)cc2)n2ccnc12 [Example 1-2, (7-chloro-5-{4-[(3,4-dichlorobenzoyl)amino]benzyl}imidazo[1,2-c]pyrimidin-8-yl)acetic acid] | < 10 nM |  | 
8 | O=C(O)Cc1c(Cl)nc(Cc2ccc(NC(=O)c3ccc(C(F)(F)F)cc3)cc2)n2ccnc12 [Example 1-1, [7-Chloro-5-(4-{[4-(trifluoromethyl)benzoyl]amino}benzyl)imidazo[1,2-c]pyrimidin-8-yl]acetic acid] |  | 10 to 100 nM | 
